One may read the IC50 as the concentration needed to halve the response being measured.

From patent publication US8524745B2 (Allergan, Inc., priority 2011, dated 2013) come the findings set out here.

The target in the assay is T1, CCR2 (Homo sapiens, UniProt P41597).
T1 construct: expressed in transfected cells
T1 sequence (P41597 whole entry, species assumed): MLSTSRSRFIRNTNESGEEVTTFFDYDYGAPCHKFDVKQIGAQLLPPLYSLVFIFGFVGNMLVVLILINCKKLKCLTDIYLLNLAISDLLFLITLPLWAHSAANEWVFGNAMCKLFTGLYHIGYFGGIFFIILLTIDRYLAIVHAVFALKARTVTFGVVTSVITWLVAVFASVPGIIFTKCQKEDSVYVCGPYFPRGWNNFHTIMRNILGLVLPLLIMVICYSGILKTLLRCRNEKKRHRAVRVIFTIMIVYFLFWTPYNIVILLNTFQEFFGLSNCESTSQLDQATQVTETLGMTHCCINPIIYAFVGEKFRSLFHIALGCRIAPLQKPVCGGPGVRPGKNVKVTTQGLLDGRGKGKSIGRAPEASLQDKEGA
As to the kind of experiment: CCR2 calcium activity assay on FLIPR Tetra in HEK-Gqi5 cells stably expressing CCR2. It is filed as cell-based. On the procedure:
HEK-Gqi5 cells stably expressing CCR2 were cultured in (DMEM high glucose, 10% FBS, 1% PSA, 400 μg/ml geneticin and 50 μg/ml hygromycin. Appropriate positive control chemokines (MCP-1, MIP1A or RANTES) was used as the positive control agonist for screening compound-induced calcium activity assayed on the FLIPR^Tetra. The drug plates were prepared in 384-well microplates using the EP3 and the MuItiPROBE robotic liquid handling systems. Compounds were synthesized and tested for CCR2 activity.
`CN(C)c1ccc(NS(=O)(=O)c2cccs2)c(NS(=O)(=O)c2ccc3c(c2)c(=O)sn3C)c1`: the “CCR2 % ANTAG” value was determined as 35% and the IC50 came out at 551 nM. On to `Cn1sc(=O)c2cc(S(=O)(=O)N[C@@H]3CCCC[C@H]3NS(=O)(=O)c3cccs3)ccc21` (relative stereo) [rel-1-methyl-3-oxo-N-{(1R,2R)-2-[(2-thienylsulfonyl)amino]cyclohexyl}-1,3-dihydro-2,1-benzisothiazole-5-sulfonamide], for which the “CCR2 % ANTAG” value was 79% and the IC50 amounted to 2370 nM. As to `Cn1sc(=O)c2cc(S(=O)(=O)N[C@@H]3CCCC[C@@H]3NS(=O)(=O)c3cccs3)ccc21` (relative stereo) [rel-1-methyl-3-oxo-N-{(1R,2S)-2-[(2-thienylsulfonyl)amino]cyclohexyl}-1,3-dihydro-2,1-benzisothiazole-5-sulfonamide], the “CCR2 % ANTAG” value turned out to be 65% and the IC50 amounted to 2180 nM. For the compound `Cn1sc(=O)c2cc(S(=O)(=O)N[C@@H]3CCCC[C@H]3NS(=O)(=O)c3ccc(Cl)c(C(F)(F)F)c3)ccc21` (relative stereo) [rel-N-[(1R,2R)-2-({[4-chloro-3-(trifluoromethyl)phenyl]sulfonyl}amino)cyclohexyl]-1-methyl-3-oxo-1,3-dihydro-2,1-benzisothiazole-5-sulfonamide], the “CCR2 % ANTAG” value is recorded as 96% and the IC50 was determined as 543 nM.

Turning to `Cn1sc(=O)c2cc(S(=O)(=O)N[C@@H]3CCCC[C@H]3NC(=O)c3cccs3)ccc21` (relative stereo) [rel-N-[(1R,2R)-2-{[(1-methyl-3-oxo-1,3-dihydro-2,1-benzisothiazol-5-yl)sulfonyl]amino}cyclohexyl]thiophene-2-carboxamide], the “CCR2 % ANTAG” value is listed as 46%. In the case of `Cn1sc(=O)c2cc(S(=O)(=O)N[C@@H]3CCCC[C@@H]3NS(=O)(=O)c3ccc(Cl)c(C(F)(F)F)c3)ccc21` (relative stereo) [rel-N-[(1R,2S)-2-({[4-chloro-3-(trifluoromethyl)phenyl]sulfonyl}amino)cyclohexyl]-1-methyl-3-oxo-1,3-dihydro-2,1-benzisothiazole-5-sulfonamide], the “CCR2 % ANTAG” value is given as 93% and the IC50 amounted to 1240 nM. In the same order, the values of `CC(C)n1sc(=O)c2cc(S(=O)(=O)Nc3cccc4c3OC(F)(F)C(F)(F)O4)ccc21` [1-isopropyl-3-oxo-N-(2,2,3,3-tetrafluoro-2,3-dihydro-1,4-benzodioxin-5-yl)-1,3-dihydro-2,1-benzisothiazole-5-sulfonamide] are 68% and 559 nM. Consider `CC(C)n1sc(=O)c2cc(S(=O)(=O)Nc3ccccc3NS(=O)(=O)c3cccs3)ccc21` [1-isopropyl-3-oxo-N-{2-[(2-thienylsulfonyl)amino]phenyl}-1,3-dihydro-2,1-benzisothiazole-5-sulfonamide], for which the “CCR2 % ANTAG” value was 90% and the 50% inhibitory concentration (IC50) is 4320 nM. Take `Cn1sc(=O)c2cc(S(=O)(=O)Nc3cc(Cl)c(Cl)cc3Cl)ccc21` [1-methyl-3-oxo-N-(2,4,5-trichlorophenyl)-1,3-dihydro-2,1-benzisothiazole-5-sulfonamide]: the “CCR2 % ANTAG” value is 79% and the IC50 came to 1660 nM.

Regarding `Cn1sc(=O)c2cc(S(=O)(=O)Nc3ccccc3NC(=O)Nc3cccs3)ccc21` [1-methyl-3-oxo-N-(2-{[(2-thienylamino)carbonyl]amino}phenyl)-1,3-dihydro-2,1-benzisothiazole-5-sulfonamide], the “CCR2 % ANTAG” value is 58% and the IC50 was found to be 2530 nM. For the compound `Cn1sc(=O)c2cc(S(=O)(=O)Nc3ccccc3CNS(=O)(=O)c3cccs3)ccc21` [1-methyl-3-oxo-N-(2-{[(2-thienylsulfonyl)amino]methyl}phenyl)-1,3-dihydro-2,1-benzisothiazole-5-sulfonamide], the “CCR2 % ANTAG” value is 61%. For the compound `Cn1sc(=O)c2cc(S(=O)(=O)NC3CCCN(S(=O)(=O)c4cccs4)C3)ccc21` (stereo not drawn) [1-methyl-3-oxo-N-[1-(2-thienylsulfonyl)piperidin-3-yl]-1,3-dihydro-2,1-benzisothiazole-5-sulfonamide], the “CCR2 % ANTAG” value stood at 39%. On the same count and under the same terms, with `Cn1sc(=O)c2cc(S(=O)(=O)NC3CCN(S(=O)(=O)c4cccs4)C3)ccc21` (stereo not drawn) [1-methyl-3-oxo-N-[1-(2-thienylsulfonyl)pyrrolidin-3-yl]-1,3-dihydro-2,1-benzisothiazole-5-sulfonamide] the figure was 22%. Turning to `Cn1sc(=O)c2cc(S(=O)(=O)Nc3ccccc3NS(=O)(=O)c3cccc(C(F)(F)F)c3)ccc21` [1-methyl-3-oxo-N-[2-({[3-(trifluoromethyl)phenyl]sulfonyl}amino)phenyl]-1,3-dihydro-2,1-benzisothiazole-5-sulfonamide], the “CCR2 % ANTAG” value was determined as 94% and the IC50 is 2210 nM. For the compound `Cn1sc(=O)c2cc(S(=O)(=O)Nc3ccccc3NS(=O)(=O)c3ccc(C(F)(F)F)cc3)ccc21` [1-methyl-3-oxo-N-[2-({[4-(trifluoromethyl)phenyl]sulfonyl}amino)phenyl]-1,3-dihydro-2,1-benzisothiazole-5-sulfonamide], the “CCR2 % ANTAG” value came out at 24% and the IC50 worked out at 606 nM. In the case of `Cn1sc(=O)c2cc(S(=O)(=O)Nc3cccc(OC(F)(F)F)c3)ccc21` [1-methyl-3-oxo-N-[3-(trifluoromethoxy)phenyl]-1,3-dihydro-2,1-benzisothiazole-5-sulfonamide], the “CCR2 % ANTAG” value came to 92% and the IC50 turned out to be 920 nM. Consider `Cn1sc(=O)c2cc(S(=O)(=O)Nc3cccc(C(F)(F)F)c3)ccc21` [1-methyl-3-oxo-N-[3-(trifluoromethyl)phenyl]-1,3-dihydro-2,1-benzisothiazole-5-sulfonamide], for which the “CCR2 % ANTAG” value is listed as 84%.

Regarding `Cn1sc(=O)c2cc(S(=O)(=O)Nc3cc(C(F)(F)F)ccc3NS(=O)(=O)c3cccs3)ccc21` [1-methyl-3-oxo-N-{2-[(2-thienylsulfonyl)amino]-5-(trifluoromethyl)phenyl}-1,3-dihydro-2,1-benzisothiazole-5-sulfonamide], the “CCR2 % ANTAG” value was determined as 103% and the IC50 came to 701 nM.

Take `Cn1sc(=O)c2cc(S(=O)(=O)NCc3ccccc3NS(=O)(=O)c3cccs3)ccc21` [1-methyl-3-oxo-N-{2-[(2-thienylsulfonyl)amino]benzyl}-1,3-dihydro-2,1-benzisothiazole-5-sulfonamide]: the “CCR2 % ANTAG” value was determined as 56% and the IC50 is 2180 nM.

With `Cn1sc(=O)c2cc(S(=O)(=O)Nc3cccnc3NS(=O)(=O)c3cccs3)ccc21` [1-methyl-3-oxo-N-{2-[(2-thienylsulfonyl)amino]pyridin-3-yl}-1,3-dihydro-2,1-benzisothiazole-5-sulfonamide], the “CCR2 % ANTAG” value is reported as 83% and the IC50 came out at 1910 nM. Take `Cn1sc(=O)c2cc(S(=O)(=O)Nc3ccccc3NS(=O)(=O)c3nnc[nH]3)ccc21` [1-methyl-3-oxo-N-{2-[(4H-1,2,4-triazol-3-ylsulfonyl)amino]phenyl}-1,3-dihydro-2,1-benzisothiazole-5-sulfonamide]: the “CCR2 % ANTAG” value stood at 90% and the half-inhibitory concentration (IC50) was determined as 1100 nM.

With `Cn1sc(=O)c2cc(S(=O)(=O)Nc3ccccc3NS(=O)(=O)c3ccccc3)ccc21` [1-methyl-3-oxo-N-{2-[(phenylsulfonyl)amino]phenyl}-1,3-dihydro-2,1-benzisothiazole-5-sulfonamide], the “CCR2 % ANTAG” value turned out to be 97% and the IC50 turned out to be 887 nM.
